Measurements as given in paper PMC8694143 (Microbiology Spectrum, 2021).
Entries after “also recorded” stand apart in the source; their conditions may differ. No end group written: not given here.

How the values were obtained:
[1] = system: SspA; test: SspA protease resuspended at 2 mg/mL in 100 mM HEPES (pH 7.8); conditions: 37°C, up to 5 h
[2] = system: M. luteus ATCC 4698; test: MIC determination in broth; assay type: cell-based, Micrococcus luteus; conditions: cation-adjusted MH broth, ~10^5 CFU/mL, 30°C, 48 h
Method: (§1) M. luteus ATCC 4698, S. aureus ATCC 29213, a panel of 7 MRSA (ATCC MP-2) strains, which includes ATCC BAA-41, BAA-42, BAA-44, BAA-1683, BAA-2094, BAA-2313, and 33592, and a series of additional bacterial isolates from human and veterinary cases were used in this study (Table S6). Bacterial strains were routinely grown in lysogeny broth (LB: 10 g/L tryptone, 5 g/L yeast extract, 10 g/L NaCl) at 30°C (M. luteus) or 37°C (Staphylococcus spp.) prior to use in specific experiments described below.
(§2) The MICs were measured for bioactive peptides identified from the initial screen. Cation-adjusted Mueller-Hinton (MH) broth was used as the growth medium for MIC determination experiments. Bacterial cultures were diluted to an OD of 5 × 10^−4 (∼10^5 CFU/mL) in 200 μL MH broth mixed with peptides in a 2-fold dilution series arrayed in 96-well plates. Plates were incubated without shaking at 30 or 37°C depending on the organism.

[3] = system: MRSA ATCC 33592; test: MIC determination in broth; assay type: cell-based, Staphylococcus aureus; conditions: Table S5; STIP3 variants, highest conc. tested 100 μg/mL; cation-adjusted MH broth, ~10^5 CFU/mL, 2-fold dilution series, 37°C, 16 h
Method: as §1, §2

[4] = system: MRSA ATCC BAA-1683; test: MIC determination in broth; assay type: cell-based, Staphylococcus aureus; conditions: STIP3 variants, highest conc. tested 100 μg/mL; cation-adjusted MH broth, ~10^5 CFU/mL, 2-fold dilution series, 37°C, 16 h
Method: as §1, §2

[5] = system: MRSA ATCC BAA-2094; test: MIC determination in broth; assay type: cell-based, Staphylococcus aureus; conditions: STIP3 variants, highest conc. tested 100 μg/mL; cation-adjusted MH broth, ~10^5 CFU/mL, 2-fold dilution series, 37°C, 16 h
Method: as §1, §2

[6] = system: MRSA ATCC BAA-2313; test: MIC determination in broth; assay type: cell-based, Staphylococcus aureus; conditions: STIP3 variants, highest conc. tested 100 μg/mL; cation-adjusted MH broth, ~10^5 CFU/mL, 2-fold dilution series, 37°C, 16 h
Method: as §1, §2

[7] = system: MRSA ATCC BAA-41; test: MIC determination in broth; assay type: cell-based, Staphylococcus aureus; conditions: STIP3 variants, highest conc. tested 100 μg/mL; cation-adjusted MH broth, ~10^5 CFU/mL, 2-fold dilution series, 37°C, 16 h
Method: as §1, §2

[8] = system: MRSA ATCC BAA-42; test: MIC determination in broth; assay type: cell-based, Staphylococcus aureus; conditions: STIP3 variants, highest conc. tested 100 μg/mL; cation-adjusted MH broth, ~10^5 CFU/mL, 2-fold dilution series, 37°C, 16 h
Method: as §1, §2

[9] = system: MRSA ATCC BAA-44; test: MIC determination in broth; assay type: cell-based, Staphylococcus aureus; conditions: STIP3 variants, highest conc. tested 100 μg/mL; cation-adjusted MH broth, ~10^5 CFU/mL, 2-fold dilution series, 37°C, 16 h
Method: as §1, §2

[10] = system: S. aureus ATCC 29213; test: MIC determination in broth; assay type: cell-based, Staphylococcus aureus; conditions: STIP3 variants, highest conc. tested 100 μg/mL; cation-adjusted MH broth, ~10^5 CFU/mL, 2-fold dilution series, 37°C, 16 h
Method: as §1, §2

Row | Substance | fragment found [1] | MIC, M. luteus [2] | MIC, S. aureus ATCC 33592 (SCCmec III) [3] | MIC, S. aureus ATCC BAA 1683 (SCCmec IV) [4] | MIC, S. aureus ATCC BAA 2094 (SCCmec V) [5] | MIC, S. aureus ATCC BAA 2313 (SCCmec XI) [6] | MIC, S. aureus ATCC BAA 41 (SCCmec II) [7] | MIC, S. aureus ATCC BAA 42 (SCCmec VI) [8] | MIC, S. aureus ATCC BAA 44 (SCCmec I) [9] | MIC, S. aureus ATCC 29213 [10]
1 | MTKDIVETVGGLVKWILDTVKKFA | TVGGLVKWILDTVKKFA; also recorded: TVGGLVKWILD; also recorded: TVKKFA; also recorded: MTKDIVE |  |  |  |  |  |  |  |  | 
2 | TAGGLVKWILDTVKKFA [V2A] |  | 50 µg/mL |  |  |  |  |  |  |  | 
3 | TVGGAVKWILDTVKKFA [L5A] |  | 100 µg/mL |  |  |  |  |  |  |  | 
4 | TVGGLAKWILDTVKKFA [V6A] |  | 50 µg/mL |  |  |  |  |  |  |  | 
5 | TVGGLVKAILDTVKKFA [W8A] |  | 100 µg/mL |  |  |  |  |  |  |  | 
6 | TVKALVKWILKTVAKFW-NH2 [STIP3-31, rationally designed STIP3-1 variant, C-terminal amide] |  |  | 25 µg/mL | 25 µg/mL | 25 µg/mL | 25 µg/mL | 25 µg/mL | 50 µg/mL | 25 µg/mL | 25 µg/mL
7 | TVKFLVKWILKWVAKFA [STIP3-25, rationally designed STIP3-1 variant] |  |  | > (The > symbol indicates that no inhibition was observed at 100 μg/mL for the STIP3 variants) | > (The > symbol indicates that no inhibition was observed at 100 μg/mL for the STIP3 variants) | > (The > symbol indicates that no inhibition was observed at 100 μg/mL for the STIP3 variants) | > (The > symbol indicates that no inhibition was observed at 100 μg/mL for the STIP3 variants) | > (The > symbol indicates that no inhibition was observed at 100 μg/mL for the STIP3 variants) | > (The > symbol indicates that no inhibition was observed at 100 μg/mL for the STIP3 variants) | > (The > symbol indicates that no inhibition was observed at 100 μg/mL for the STIP3 variants) | > (The > symbol indicates that no inhibition was observed at 100 μg/mL for the STIP3 variants)
8 | TVKGLVKWILATVKKFA [STIP3-16, rationally designed STIP3-1 variant] |  |  | 50 µg/mL | > (The > symbol indicates that no inhibition was observed at 100 μg/mL for the STIP3 variants) | 100 µg/mL | 100 µg/mL | 50 µg/mL | 50 µg/mL | 100 µg/mL | 100 µg/mL
